Data taken from patent US20170166555A1, “FUNCTIONALISED AND SUBSTITUTED INDOLES AS ANTI-CANCER AGENTS” (Novogen Limited, priority 2013, published 2017).
Read-outs that look alike come from different tables or passages of the source.

Legend:
Type in all cases: cell-based
[1] = system: melanoma (SK-Mel-28) cells; assay: Cell viability assay (MTT, 48 hr); settings: Homo sapiens, 48 hr treatment, read-out: IC50 (μM) SKMEL28
Procedure: (§1) Cell viability assays were also conducted to assess the anti-proliferative effects of the anti-tropomyosin compounds 4001-4015. Briefly, cells (1×10^3/well) were plated (96-well) and treated (48 hr) with anti-tropomyosin drug and viability measured using 3-(4,5-dimethylthiazol-2-yl)-2,5-diphenylterazolium bromide MTT. Cell viability was normalized to control (vehicle alone) and dose-response curves, and half maximal effective concentration (EC50) values were determined using Graph Pad Prism 5 (nonlinear regression sigmoidal dose-response variable slope).

[2] = system: neuroblastoma (SH-EP) cells; assay: Cell viability assay (MTT, 48 hr); settings: 48 hr treatment, read-out: IC50 (μM) SHEP
Procedure: as §1

[3] = system: SK-N-SH neuroblastoma cells; assay: Anti-proliferative assay, cell-titre luminescent reagent, 72 h (GVK-BIO); settings: Homo sapiens
Summary of the method: (§2)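 Luminescent cell-titre viability was read 30 min after reagent addition, following 72 h compound exposure of cells pre-cultured 24 h at 37 °C, 5% CO2. Dose sets were 30–0.03 μM (4 points) or 30–0.1 μM (6 points), giving IC50 by linear regression or EC50 by nonlinear variable-slope fit vs vehicle.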

[4] = system: PC3 prostate cancer cells; assay: as above
Summary of the method: as §2

[5] = system: DU145 prostate cancer cells; assay: as above; settings: Homo sapiens
Summary of the method: as §2

[6] = system: SK-Mel-28 melanoma cells; assay: as above; settings: Homo sapiens
Summary of the method: as §2

[7] = system: MDA-MB-231 triple negative breast cancer cells; assay: as above; settings: Homo sapiens
Summary of the method: as §2

[8] = system: CaCo2 colorectal cancer cells; assay: as above
Summary of the method: as §2

[9] = system: A549 non-small cell lung carcinoma cells; assay: as above; settings: Homo sapiens, read-out: IC50/μM Lung (NSLC) A549
Summary of the method: as §2

[10] = SK-N-SH, 30, 3, 0.3 and 0.03 μM, linear regression (Tables 2-4)
[11] = 30, 3, 0.3 and 0.03 μM, linear regression (Tables 2-4)
[12] = DU-145, 72 h, 30, 3, 0.3 and 0.03 μM, linear regression (Tables 2-4)
[13] = SK-MEL-28, 72 h, 30, 3, 0.3 and 0.03 μM, linear regression (Tables 2-4)
[14] = MDA-MB-231, 72 h, 30, 3, 0.3 and 0.03 μM, linear regression (Tables 2-4)
[15] = Homo sapiens, Caco-2, 72 h, 30, 3, 0.3 and 0.03 μM, linear regression (Tables 2-4)
[16] = A549, 72 h, 30, 3, 0.3 and 0.03 μM, linear regression (Tables 2-4)
[17] = SK-N-SH, 30, 10, 3, 1, 0.3 and 0.1 μM, nonlinear regression (Table 5)
[18] = 30, 10, 3, 1, 0.3 and 0.1 μM, nonlinear regression (Table 5)
[19] = DU-145, 72 h, 30, 10, 3, 1, 0.3 and 0.1 μM, nonlinear regression (Table 5)
[20] = SK-MEL-28, 72 h, 30, 10, 3, 1, 0.3 and 0.1 μM, nonlinear regression (Table 5)
[21] = MDA-MB-231, 72 h, 30, 10, 3, 1, 0.3 and 0.1 μM, nonlinear regression (Table 5)
[22] = Homo sapiens, Caco-2, 72 h, 30, 10, 3, 1, 0.3 and 0.1 μM, nonlinear regression (Table 5)
[23] = A549, 72 h, 30, 10, 3, 1, 0.3 and 0.1 μM, nonlinear regression (Table 5)

SMILES	IC50 [1] [µM]	IC50 [2] [µM]	IC50 [3, 10] [µM]	IC50 [4, 11] [µM]	IC50 [5, 12] [µM]	IC50 [6, 13] [µM]	IC50 [7, 14] [µM]	IC50 [8, 15] [µM]	IC50 [9, 16] [µM]	further results
CN(C)CCCn1ccc2cc(-c3cnn(CC4CCN(C)CC4)c3)ccc21 [Compound 4005, N,N-dimethyl-3-(5-(1-((1-methylpiperidin-4-yl)methyl)-1H-pyrazol-4-yl)-1H-indol-1-yl)propan-1-amine]	53.8	5.4								
CC(c1ccccc1)n1cc(-c2ccc3c(ccn3CCCN(C)C)c2)cn1 (stereo not drawn) [Compound 4004, N,N-dimethyl-3-(5-(1-(1-phenylethyl)-1H-pyrazol-4-yl)-1H-indol-1-yl)propan-1-amine]	9.8	6.7								
Cc1c(C)n(CCCN(C)C)c2ccc(-c3cnn(Cc4ccccc4)c3)cc12 [Compound 4009, 3-(5-(1-benzyl-1H-pyrazol-4-yl)-2,3-dimethyl-1H-indol-1-yl)-N,N-dimethylpropan-1-amine]	5.4	3								
Cc1c(C)n(CCCN(C)C)c2ccc(Cc3cccc(C(=O)Nc4ccccc4)c3)cc12 [Compound 4055]			4.6	7.9	4.5	5.1	4.7	6.8	4.7	
COc1cccc(NC(=O)c2ccc(Oc3ccc4c(ccn4CCCN(C)C)c3)cc2)c1 [Compound 4092, 4-((1-(3-(dimethylamino)propyl)-1H-indol-5-yl)oxy)-N-(3-methoxyphenyl)benzamide]										IC50 [3, 17]: 13.8 µM; IC50 [4, 18]: 38.3 µM; IC50 [5, 19]: 16.7 µM; IC50 [6, 20]: 13.3 µM; IC50 [7, 21]: 22.6 µM; IC50 [8, 22]: 17.1 µM; IC50 [9, 23]: 8.3 µM
Cc1c(C)n(CCCN2CCN(C)CC2)c2ccc(CN3CCN(CCc4ccc(F)cc4)CC3)cc12 [Compound 4110, 5-((4-(4-fluorophenethyl)piperazin-1-yl)methyl)-2,3-dimethyl-1-(3-(4-methylpiperazin-1-yl)propyl)-1H-indole]										IC50 [3, 17]: 4.2 µM; IC50 [4, 18]: 17.7 µM; IC50 [5, 19]: 22.7 µM; IC50 [6, 20]: 4.4 µM; IC50 [7, 21]: 6.9 µM; IC50 [8, 22]: 12.9 µM; IC50 [9, 23]: 33.2 µM
CN(C)CCCn1ccc2cc(Nc3cccc(C(=O)Nc4ccc(F)cc4)c3)ccc21 [Compound 4067, 3-((1-(3-(dimethylamino)propyl)-1H-indol-5-yl)amino)-N-(4-fluorophenyl)benzamide]			3.3	4.3	4.3	2.5	3.8		4	IC50 [8, 11]: 4.3 µM
Cc1c(C)n(CCCN2CCN(C)CC2)c2ccc(C(=O)N3CCN(CCc4ccc(F)cc4)CC3)cc12 [Compound 4120, (2,3-dimethyl-1-(3-(4-methylpiperazin-1-yl)propyl)-1H-indol-5-yl)(4-(4-fluorophenethyl)piperazin-1-yl)methanone]			13.8	> 30	> 30	17.7	> 30	> 30	23	

Second part, led by results:

IC50 [1] [µM]	IC50 [2] [µM]	IC50 [3, 10] [µM]	IC50 [4, 11] [µM]	IC50 [5, 12] [µM]	IC50 [6, 13] [µM]	IC50 [7, 14] [µM]	IC50 [8, 15] [µM]	IC50 [9, 16] [µM]	SMILES	further results
25.9									CN(C)CCCn1ccc2cc(-c3cnn(Cc4ccccc4)c3)ccc21 [Compound 4003, 3-(5-(1-benzyl-1H-pyrazol-4-yl)-1H-indol-1-yl)-N,N-dimethylpropan-1-amine]	
	107								CN(C)CCCn1ccc2cc(-c3cnn(CC4CCOCC4)c3)ccc21 [Compound 4006, N,N-dimethyl-3-(5-(1-((tetrahydro-2H-pyran-4-yl)methyl)-1H-pyrazol-4-yl)-1H-indol-1-yl)propan-1-amine]	
		2.9	3.6	3.5	2.9	2.2	2.1	3.4	COc1cccc(NC(=O)c2ccc(Nc3ccc4c(c3)c(C)c(C)n4CCCN(C)C)cc2)c1 [Compound 4108, 4-((1-(3-(dimethylamino)propyl)-2,3-dimethyl-1H-indol-5-yl)amino)-N-(3-methoxyphenyl)benzamide]	
		4.3	17.3	4.9	3.4	4.5	16.1	4.1	COc1ccc(NC(=O)c2cccc(Cc3ccc4c(c3)c(C)c(C)n4CCCN(C)C)c2)cc1 [Compound 4051]	
